Laboratory results taken from patent US12151998B2, “Solid drug form of N-(2,6-bis(1-methylethyl)phenyl)-N′-((1-(4-(dimethylamino)phenyl)cyclopentyl)methyl)urea hydrochloride and compositions, methods and kits related thereto” (The Regents of the University of Michigan, priority 2014, dated 2024).
Counter-ions that a name gives are not always drawn.

Tests used:
[1] = Enhanced exposure with stomach acidification: pharmacokinetics of ATR-101 tablets in dogs; type: in vivo; conditions: male beagle dogs, single 125 mg ATR-101 tablet oral; pretreated with pentagastrin compared to pretreatment with famotidine
Experimental: To examine pharmacokinetics and exposures of ATR-101 tablets prepared according to Example 6, an in vivo study was carried out in dogs following pretreatment with pentagastrin to decrease stomach pH, or famotidine to increase the stomach pH.
The same cohort of dogs was used in both treatments and included a 5-day wash-out between the treatment arms. Male beagle dogs (approximately 6.5-12.5 kg, n=6) were fasted overnight prior to dosing and through the first 4 hours of blood sample collection. For the pentagastrin arm, the animals were pretreated with a single intramuscular injection of pentagastrin (0.06 mg/mL at a dose level of […] and a dose volume of 0.01 mL/kg) 16 to 22 minutes prior to test article administration. For the famotidine arm, animals were pretreated with a single oral tablet dose of 20 mg famotidine at 59 to 60 minutes prior to tablet administration.
Following tablet administration, each animal received 30 mL of tap water via oral gavage. Animals were treated with a single 125 mg ATR-101 tablet by oral administration. The tablet was made as described in Example 6 above, and contained the ingredients listed in Table 6, but with the amount of ATR-101 at 125 mg (as free base) rather than 500 mg and the remaining ingredients reduced by the same weight percentage. […] ATR-101 concentrations were determined by LC/MSMS.

ACC = conditions: cited from earlier work

SMILES: CC(C)c1cccc(C(C)C)c1NC(=O)NCC1(c2ccc(N(C)C)cc2)CCCC1 [ATR-101, N-(2,6-bis(1-methylethyl)phenyl)-N′-((1-(4-(dimethylamino)phenyl)cyclopentyl)methyl)urea hydrochloride]
- increase in systemic exposure [1]: 57%

SMILES: Clc1ccc(C(c2ccccc2Cl)C(Cl)Cl)cc1 (stereo not drawn) [mitotane]
- delay of disease progression (average) (ACC; ACC patients that derive a therapeutic benefit): five
- patients with increased progression-free survival (ACC; ACC patients, fraction of patients): one-quarter to one-third
